Reference: patent publication US20240245856A1, “Electromechanical Devices for the Burst Release of Indefinitely Stable Dry Powder Drugs” (Massachusetts Institute of Technology, priority 2023, published 2024)
Where two headings read alike, the source gives them in different places.

How the values were obtained:
[1] = test system: healthy C57/BL6J mice; conditions: for time after release at which increase in BG is evident / time after release at which increase in HR is evident: 1 mg pill, 5%-95% Epinephrine-Lactose, subcutaneous, mice
Protocol: To test this, studies with epinephrine, a naturally occurring circulating neurotransmitter hormone produced by the adrenal medulla, were performed and used as emergency medication in the treatment of anaphylaxis, cardiac arrest, asthma, and hypotension. Epinephrine release targets adrenergic receptors is accompanied by increases in heart rate (HR).
In vivo epinephrine release involved studies on anesthetized adult, male, healthy C57/BL6J mice. Mice were implanted with emergency rescue devices containing epinephrine doses of 1.4 mg/kg via the surgical procedures described above and allowed to recover for a 3-day period. On day 3, mice were carefully anesthetized via the flow of 1% isoflurane, and hair around the dorsal neck region was removed via the application of a depilatory cream (e.g., Nair). A collar-mounted optical probe (e.g., a MouseOx, Starr Life Science, Oakmont, PA) was then used to track heart rate. Additional biomarkers measured by the probe included oxygen saturation (SpO2), pulse-width distension (a measure of blood flow) and breath rate. Animals were monitored until their heart rate reached steady values of 380-400 bpm. A primary transmitter antenna was then brought into close proximity for 2-5 minutes to induce wireless release. Anesthetized animals were then monitored via optical probe measurements for 30 minutes, followed by euthanasia and explantation to evaluate opening and drug dissolution.

[2] = In vivo IVIS fluorescence imaging of release from subcutaneously implanted device; design: species or system mice; conditions: for biodistribution (IVIS imaging of major organs): organs imaged 40 minutes after subcutaneous release
Protocol: Imaging studies with fluorescently labeled lyophilized insulin-dye conjugates (Ins-Cy7) validate burst release in vivo, over timescales of about 10 minutes. Devices (e.g., device 100) were implanted in subcutaneous sites, with release apertures 171 facing into muscle beds (the complete surgical implantation procedure is disclosed below).
An equivalent set of studies with glucagon conjugated with cy7 (GCG-cy7) reveal similar release profiles as illustrated in FIG. 5A with strong fluorescence visible within the first 20 minutes following release. […] As shown herein, dry-powder injection directly into subcutaneous sites may function as a mechanism to both maintain long-term drug stability and ensure rapid action following release.
Animals were anesthetized via isoflurane and placed in an in vivo imaging system (IVIS). Baseline fluorescent measurements tuned to emission peaks of cy7 (exposure time 3 seconds, 640 nm<wavelength<840 nm) established pre-release fluorescence profiles. A primary antenna placed in close proximity to the device for about 1 minute induced wireless drug release. Sequential imaging following release at intervals of about 5 minutes then allowed for imaging of fluorescence signals resulting from drug dissolution and diffusion. […]

[3] = test system: blood glucose concentrations; conditions: administration for acute hypoglycemia; cited from earlier work
[4] = cited from earlier work
[5] = test system: C57/BL6 mice with chemically induced diabetes via Streptozotocin (STZ); assay: Post-fasting glucagon release in diabetic mice (blood glucose); assay type: in vivo; conditions: glucagon release studies in diabetic mice
Protocol: In an initial set of experiments (results shown in FIG. 5C) mice were fasted to induce mild hypoglycemia baseline BG 113±1.9 mg dl^−1). Wireless release is triggered at time t=0 minutes by placing the awake, freely moving mice in a modified enclosure capable of providing wireless power at 13.56 MHz. Successive measurements then reveal a rapid rise in BG measurements relative to baselines, with a peak value ([…]) occurring at tmax=15 minutes following release. […] Following release, explantation confirmed complete opening and dissolution of the pills (FIG. 22).
0.5 μl volumes of blood were collected via tail-pricks with 25-27G and measured with a commercial handheld blood glucose meter (e.g., a Clarity, BG1000). The upper limit of measurements is 600 mg/dl on these systems and values above this were recorded as 600 mg/dl for analysis. Non-fasting values were recorded for 7-10 days following implantation, after which BG values were recorded following a 2.5 hour fast. Mice were weighed before and after fasting periods. Measurements in experimental groups (O2, Non O2 controls) were recorded in triplicate to account for any variability in readings and averaged.
(i) Post-fasting studies: These studies were performed […] after device implantation in STZ-induced diabetic BL6 mice. […] BG values recorded immediately following release served as t=0 minutes measurements. […]

[6] = HPLC drug dissolution testing of glucagon pills in PBS; assay type: physicochemical; conditions: 37° C., across a range of loading fractions
Text: Capabilities in closed-loop burst release enabled by wireless communication between commercially available biosensors and emergency rescue devices represent a feature of this technology. One example is the combination of glucagon release with CGM technology for fully closed-loop glucose-responsive hypoglycemic rescue during periods of sleep or hypoglycemia unawareness and in pediatric patients who are unable to self-administer glucagon. […] Benchtop testing in a physiological mimic glucose solution was also performed. […]
Several known concentrations of glucagon (x, unit μM) were tested with the HPLC and the corresponding absorbance peak areas (y, A.U.) were measured. […] This equation yields glucagon concentrations of testing solutions at different time points via measurements of absorbance peak areas. […]
HPLC was performed under the following conditions using an Agilent InfinityLab Poroshell 120 (EC-C18, 4.6 mm×100 mm, 2.7 μm particle size) at 25° C., using 0.1% formic acid in water (solvent A) and acetonitrile (solvent B) at 0.6 ml/min. […] Glucagon UV absorption was monitored at 280 nm with retention time (Rt)=19.2 min.

[7] = 30 minutes after release, 1 mg pill 5%-95% Epinephrine-Lactose, n=3

Q: What does the source list for CNC[C@H](O)c1ccc(O)c(O)c1 [Epinephrine]?
A: time after release at which increase in BG is evident [1]: ≤ 10 min; time after release at which increase in HR is evident [1]: ≤ 10 min; time after release at which increase in BG is evident ([1]; listed as epinephrine): ≤ 5 min; time after release at which increase in HR is evident ([1]; listed as epinephrine): ≤ 5 min; ΔBG [1, 7]: 66 ± 23 mg/dL; ΔHR [1, 7]: 140±33 bpm; correlation of other biomarkers (heart rate, SpO2, pulse-width distension) with release ([1]; pills at 0.3 mg/kg and 1.5 mg/kg versus sham implants): weak correlation

Q: What does the source list for “GCG-cy7: glucagon conjugated with cy7; 1-mg glucagon-lactose (4%-96% by weight) pill labeled with fluorescent dye”?
A: biodistribution (IVIS imaging of major organs) [2]: confinement to liver site; time after release at which strong fluorescence is visible ([2]; release 2 days after subcutaneous implantation): ≤ 20 min

Q: For “Ins-Cy7: fluorescently labeled lyophilized insulin-dye conjugates; 1 mg Insulin-cy7-Lactose (4%-96% by weight) pills”, which “fluorescence before wireless release” value ([2]; implanted sealed device, until release 7 days after implantation) is on record?
A: The value was “no detectable fluorescence”.

Q: And the “biodistribution (IVIS imaging of major organs)” value [2]?
A: The value was “confined to the liver”.

Q: What about the “timescale of burst release in vivo” value ([2]; subcutaneous device, mice, IVIS) of the same compound?
A: The value was “about 10 minutes”.

Q: What about the “time after release at which fluorescence is detectable” value ([2]; subcutaneous site, release on day 7) of the same compound?
A: The value was no more than 5 min.

Q: And the “increase in local fluorescence intensity (ROI)” value ([2]; within the first 15 minutes following release, n=3 mice)?
A: The value was “roughly tenfold”.

Q: With glucagon as the compound, how does the “time to increase in blood glucose concentrations” value [3] read?
A: The value was less than 10 min.

Q: What about the stability in solution [4] of the same compound?
A: The stability in solution was less than 1 days.

Q: And the “time to increase in blood glucose after release” value [5]?
A: Its value is less than 10 min.

Q: And the “dissolution of dry powder drug (HPLC)” value [6]?
A: Its value is “rapid dissolution”.
